The results in this text go back to US9289430B2, “Compounds and methods for inhibiting phosphate transport” (Ardelyx, Inc., priority 2010, dated 2016).

The structures appear in SMILES notation.

Data set [1] is described as follows: Fecal recovery of orally administered compounds. Type of data set: in vivo, Sprague-Dawley rats. The following applies: rats, oral gavage, nominal 10 mg/kg (actual 7.6-11 mg/kg), feces 0-48 hr after dosing. In short, it runs like this: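 Feces collected in metabolic cages for 48 hr after oral gavage, in the animals used for plasma exposure. Lyophilized, ground samples extracted with organic solvent in duplicate and quantified by LC-MS/MS against a feces-matrix standard curve. Extraction not optimized per compound, so values may be minimal recovery.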

Data set [2] addresses T1, human NaP2b (SLC34A2) (Homo sapiens, UniProt O95436).
T1 construct: host or cells: HEK293
T1 sequence (O95436 1-690): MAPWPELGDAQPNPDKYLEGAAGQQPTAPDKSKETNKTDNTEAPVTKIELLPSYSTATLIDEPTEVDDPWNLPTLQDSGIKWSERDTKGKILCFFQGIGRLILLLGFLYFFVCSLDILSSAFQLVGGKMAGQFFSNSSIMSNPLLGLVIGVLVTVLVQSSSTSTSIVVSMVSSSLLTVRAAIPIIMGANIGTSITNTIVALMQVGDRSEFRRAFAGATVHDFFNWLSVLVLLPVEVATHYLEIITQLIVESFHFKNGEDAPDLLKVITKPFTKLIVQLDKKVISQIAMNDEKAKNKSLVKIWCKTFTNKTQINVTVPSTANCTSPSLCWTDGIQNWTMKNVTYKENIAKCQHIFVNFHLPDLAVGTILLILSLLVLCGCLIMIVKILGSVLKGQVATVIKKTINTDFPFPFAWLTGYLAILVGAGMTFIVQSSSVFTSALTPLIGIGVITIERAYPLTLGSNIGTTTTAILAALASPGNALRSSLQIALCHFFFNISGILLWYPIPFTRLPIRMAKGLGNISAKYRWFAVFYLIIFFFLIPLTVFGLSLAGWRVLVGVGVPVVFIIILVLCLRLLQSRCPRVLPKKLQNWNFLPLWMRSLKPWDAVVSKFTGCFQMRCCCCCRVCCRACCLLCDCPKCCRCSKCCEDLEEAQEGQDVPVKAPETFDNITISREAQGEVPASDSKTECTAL
In words: NaP2b-mediated Pi transport: 33P phosphate uptake into transfected HEK293 cells. The format is cell-based. The following applies: human protein with threonine inserted after residue 37 and N39D, 100 uM KH2PO4, read-out: pIC50 range for human Nap2b (converted). In a few lines: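 Transiently transfected HEK293 cells, human clone carrying Thr insertion after residue 37 and N39D; PiT transport silenced pharmacologically. ^33P-phosphate uptake in sodium buffer (100 uM KH2PO4, pH 7.4) versus choline buffer, 3-30 min at room temperature, twelve concentrations 0.1 nM–30 uM in duplicate; scintillation counting, pIC50 derived.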

The target in data set [3] is T2, rat NaP2b (SLC34A2) (Rattus norvegicus, UniProt Q9JJ09).
T2 construct: host or cells: HEK293
T2 sequence (Q9JJ09 1-695): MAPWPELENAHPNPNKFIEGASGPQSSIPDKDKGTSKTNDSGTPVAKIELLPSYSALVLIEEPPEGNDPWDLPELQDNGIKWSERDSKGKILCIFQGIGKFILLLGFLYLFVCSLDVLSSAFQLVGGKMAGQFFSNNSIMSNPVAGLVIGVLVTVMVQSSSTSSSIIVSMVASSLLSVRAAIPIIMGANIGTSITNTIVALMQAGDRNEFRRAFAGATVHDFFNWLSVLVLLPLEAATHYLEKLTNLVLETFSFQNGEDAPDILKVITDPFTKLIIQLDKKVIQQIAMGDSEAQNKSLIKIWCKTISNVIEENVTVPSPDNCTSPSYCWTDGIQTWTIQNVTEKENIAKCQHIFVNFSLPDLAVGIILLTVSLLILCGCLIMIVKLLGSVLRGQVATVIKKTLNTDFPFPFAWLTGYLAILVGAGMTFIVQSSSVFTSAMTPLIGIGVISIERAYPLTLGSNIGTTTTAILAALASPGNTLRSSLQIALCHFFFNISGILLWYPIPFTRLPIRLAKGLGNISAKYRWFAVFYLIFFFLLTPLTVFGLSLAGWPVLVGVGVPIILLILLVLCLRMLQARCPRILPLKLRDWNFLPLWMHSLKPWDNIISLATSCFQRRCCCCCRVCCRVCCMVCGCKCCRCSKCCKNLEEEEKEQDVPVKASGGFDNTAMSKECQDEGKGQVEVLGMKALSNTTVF
Described as above. The format is cell-based. Conditions: 100 uM KH2PO4, PiT-silencing agent, read-out: pIC50 range for rat Nap2b (converted).

The nature of data set [4]: Determination of compound Cmax and AUC after oral gavage. The following applies: Sprague-Dawley, rat plasma, nominal 10 mg/kg (actual 7.6-11 mg/kg), sampling 0.5-4 h. Type of data set: in vivo, Sprague-Dawley rats. The protocol:
Sprague-Dawley rats were orally gavaged with test article at a nominal dose of 2.5 or 10 mg/kg and blood was collected at 0.5, 1, 2 and 4 h. Blood samples were processed to plasma using K2EDTA as an anticoagulant. Plasma samples were treated with acetonitrile containing an internal standard, precipitated proteins removed by centrifugation. Supernatants were analyzed by LC-MS/MS and compound concentrations were determined by interpolated from a standard curve prepared in plasma. All compounds were orally dosed at the dosage shown, and pharmacokinetic parameters determined

A word on the AUC: it is the area under the concentration-time curve, a measure of exposure. Low readings indicate less exposure, high ones more exposure. In the case of `O=C(O)CCOCCOCCOCCNC(=O)Cc1cccc(SCc2cccc(C(=O)Nc3ccc(N4CCCCC4)cc3C(=O)Nc3ccn(-c4cccc(C(F)(F)F)c4)n3)c2)c1` [Example 26, 2-Oxo-1-(3-((3-((4-(piperidin-1-yl)-2-((1-(3-(trifluoromethyl)phenyl)-1H-pyrazol-3-yl)carbamoyl)phenyl)carbamoyl)benzyl)thio)phenyl)-6,9,12-trioxa-3-azapentadecan-15-oic acid], the “% recovered in feces” value in data set [1] is 9.5%. For the same molecule, the IC50 in data set [2] and in data set [3] was < 1000 nM throughout. Further, in data set [4], the AUC was < 3 ng·h/mL.
Regarding `CN(CCN1CCOCC1)C(=O)c1cccc(C(=O)Nc2ccc(N3CCCCC3)cc2C(=O)Nc2ccn(-c3cccc(C(F)(F)F)c3)n2)c1` [Example 11, N1-Methyl-N1-(2-morpholinoethyl)-N3-(4-(piperidin-1-yl)-2-((1-(3-(trifluoromethyl)phenyl)-1H-pyrazol-3-yl)carbamoyl)phenyl)isophthalamide], in data set [1], the “% recovered in feces” value was found to be 47%. Moreover, the IC50 in data set [2] and in data set [3] was < 1000 nM throughout.
One may read the Cmax as the highest concentration seen after dosing. With `CN(CCN1CCOCC1)C(=O)c1cccc(C(=O)Nc2ccc(Cl)cc2C(=O)Nc2ccn(-c3cccc(C(F)(F)F)c3)n2)c1` [Example 14, N1-(4-Chloro-2-((1-(3-(trifluoromethyl)phenyl)-1H-pyrazol-3-yl)carbamoyl)phenyl)-N3-methyl-N3-(2-morpholinoethyl)isophthalamide 2,2,2-trifluoroacetate], the “% recovered in feces” value in data set [1] stood at 6.6%. The IC50 in data set [2] and in data set [3] was < 1000 nM in each case. This molecule had an AUC in data set [4] of 788 ng·h/mL. The peak level in data set [4] (Cmax) was 487 ng/mL.
